What follows are molecules tested against T1, 5HT-uptake (Rattus norvegicus, UniProt P31652) (assay: Serotonin uptake inhibition (5HT uptake) in synaptosomes). Settings: rat brain synaptosomes.
T1 construct: synaptosomes from rat brain regions were freshly isolated; from tissue; host or cells: P2 synaptosome fraction from rat brain regions
T1 sequence (P31652 whole entry): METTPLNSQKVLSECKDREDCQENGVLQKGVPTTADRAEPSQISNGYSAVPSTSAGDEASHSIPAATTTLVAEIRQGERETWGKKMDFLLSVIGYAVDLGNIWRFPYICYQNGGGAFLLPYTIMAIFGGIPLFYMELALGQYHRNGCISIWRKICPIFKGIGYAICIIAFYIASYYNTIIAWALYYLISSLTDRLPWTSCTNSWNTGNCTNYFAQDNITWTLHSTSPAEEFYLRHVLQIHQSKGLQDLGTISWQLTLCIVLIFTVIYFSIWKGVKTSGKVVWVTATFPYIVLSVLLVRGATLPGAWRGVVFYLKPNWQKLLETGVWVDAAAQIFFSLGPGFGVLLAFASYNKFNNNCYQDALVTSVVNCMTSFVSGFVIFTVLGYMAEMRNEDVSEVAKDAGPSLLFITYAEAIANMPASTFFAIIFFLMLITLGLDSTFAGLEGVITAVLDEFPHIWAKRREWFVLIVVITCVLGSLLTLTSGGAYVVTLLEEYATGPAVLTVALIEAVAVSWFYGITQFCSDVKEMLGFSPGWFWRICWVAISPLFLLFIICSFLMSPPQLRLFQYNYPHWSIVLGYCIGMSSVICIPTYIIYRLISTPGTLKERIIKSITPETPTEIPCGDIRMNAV
Format: biochemical
Text: Tests on Serotonin Uptake (5HT Uptake Inhibition)
In order to be able to carry out these in vitro studies, synaptosomes from rat brain regions were freshly isolated.
For `COc1cc(OC)cc(N2CCN(C(=O)C3=NOC4(CCN(S(=O)(=O)c5ccc(Cl)s5)CC4)C3)CC2)c1` [Example 71, [8-(5-chloro-thiophene-2-sulphonyl)-1-oxa-2,8-diaza-spiro[4,5]dec-2-en-3-yl]-[4-(3,5-dimethoxy-phenyl)-piperazin-l-yl]-methanone], the “5HT-uptake, 10 μM, % inhibition” value was 43%. `O=C(Cc1ccc(F)c(F)c1)N1CCN(C(=O)C2=NOC3(CCN(S(=O)(=O)c4cccc(C(F)(F)F)c4)CC3)C2)CC1` [Example 93] was tested, and the “5HT-uptake, 10 μM, % inhibition” value was 42%. In the case of `CCCS(=O)(=O)N1CCC2(CC1)CC(C(=O)NCC(C)C)=NO2` [Example 82, 8-(propane-1-sulphonyl)-1-oxa-2,8-diaza-spiro[4,5]dec-2-ene-3-carboxylic acid isobutyl-amide], the inhibition at 10 µM is reported as 42%. With `CN(Cc1cccnc1)C(=O)C1=NOC2(CCN(S(=O)(=O)c3cc(Cl)ccc3Cl)CC2)C1` [Example 92, 8-(2,5-dichloro-benzenesulphonyl)-1-oxa-2,8-diaza-spiro[4,5]dec-2-ene-3-carboxylic acid methyl-pyridin-3-ylmethyl-amide] the inhibition at 10 µM was 51%. In the case of `CCOC(=O)N1CCC(NC(=O)C2=NOC3(CCN(C(=O)c4ccc(F)cc4F)CC3)C2)CC1` [Example 56, 4-{[8-(2,4-difluoro-benzoyl)-1-oxa-2,8-diaza-spiro[4,5]dec-2-ene-3-carbonyl]-amino}-piperidine-1-carboxylic acid ethyl ester], the inhibition at 10 µM is reported as 52%. `O=C(NCC1CC1)C1=NOC2(CCN(S(=O)(=O)c3cccc(C(F)(F)F)c3)CC2)C1` [Example 94, 8-(3-trifluoromethyl-benzenesulphonyl)-1-oxa-2,8-diaza-spiro[4,5]dec-2-ene-3 carboxylic acid cyclopropylmethyl-amide] gave an inhibition at 10 µM of 57%. In the case of `COC(=O)C(Cc1c[nH]c2ccccc12)NC(=O)C1=NOC2(CCN(S(=O)(=O)c3ccc(OC(F)(F)F)cc3)CC2)C1` (stereo not shown) [Example 1, 3-(1H-indo1-3-yl)-2-{[8-(4-trifluoromethoxy-benzene-sulphonyl)-1-oxa-2,8-diaza-spiro[4,5]dec-2-ene-3-carbonyl]-amino}-propionic acid methyl ester], the “5HT-uptake, 10 μM, % inhibition” value is reported as 47%. `CN(C)S(=O)(=O)N1CCC2(CC1)CC(C(=O)NCc1ccc(F)cc1F)=NO2` [Example 77, 8-dimethylsulphamoyl-1-oxa-2,8-diaza-spiro[4,5]dec-2-ene-3-carboxylic acid 2,4-difluorobenzylamide] was tested, and the inhibition at 10 µM was 41%. With `Cc1cc(C(=O)N2CCC3(CC2)CC(C(=O)NCC(C)C)=NO3)ccc1Br` [Example 88, 8-(4-bromo-3-methyl-benzoyl)-1-oxa-2,8-diaza-spiro[4,5]dec-2-ene-3-carboxylic acid isobutyl-amide] the inhibition at 10 µM was 46%. In the case of `O=C(NC(c1ccccc1)c1ccccc1)C1=NOC2(CCN(S(=O)(=O)c3ccc(Cl)s3)CC2)C1` [Example 40, 8-(5-chloro-thiophene-2-sulphonyl)-1-oxa-2,8-diaza-spiro[4,5]dec-2-ene-3 carboxylic acid benzhydryl-amide], the inhibition at 10 µM is reported as 45%. `CCOC(=O)CCNC(=O)C1=NOC2(CCN(C(=O)c3c(Cl)ccc(C)c3F)CC2)C1` [Example 148] was tested, and the “5HT-uptake, 10 μM, % inhibition” value was 47%. `C=CCOC(=O)C(CC(=O)OC(C)(C)C)NC(=O)C1=NOC2(CCN(S(=O)(=O)c3cc(Cl)ccc3Cl)CC2)C1` (stereo not shown) [Example 53] was tested, and the “5HT-uptake, 10 μM, % inhibition” value was 53%. `O=C(Nc1ccc2ccccc2c1)C1=NOC2(CCN(S(=O)(=O)c3ccc(OC(F)(F)F)cc3)CC2)C1` [Example 54, 8-(4-trifluoromethoxy-benzenesulphonyl)-1-oxa-2,8-diaza-spiro[4,5]dec-2-ene-3-carboxylic acid naphthalen-2-ylamide] showed an inhibition at 10 µM of 43%. In the case of `CCCC(=O)N1CCC2(CC1)CC(C(=O)Nc1ccccc1)=NO2` [Example 85, 8-butyryl-1-oxa-2,8-diaza-spiro[4,5]dec-2-ene-3-carboxylic acid phenylamide], the inhibition at 10 µM is reported as 41%. `O=C(C1=NOC2(CCN(S(=O)(=O)c3ccc(Cl)s3)CC2)C1)N1CCN(c2ccc(F)cc2)CC1` [Example 91, [8-(5-chloro-thiophene-2-sulphonyl)-1-oxa-2,8-diaza-spiro[4,5]dec-2-en-3-yl]-[4-(4-fluorophenyl)-piperazin-1-yl]-methanone] was tested, and the inhibition at 10 µM was 45%. For `CN(C)S(=O)(=O)N1CCC2(CC1)CC(C(=O)N1CCN(c3ncnc4sccc34)CC1)=NO2` [Example 70, 3-(4-thieno[2,3-d]pyrimidin-4-yl-piperazine-1-carbonyl)-1-oxa-2,8-diaza-spiro[4,5]dec-2-ene-8-sulphonic acid dimethylamide], the inhibition at 10 µM was 54%. `CN(C)S(=O)(=O)N1CCC2(CC1)CC(C(=O)NCCc1ccc(Cl)cc1)=NO2` [Example 58, 8-dimethylsulphamoyl-1-oxa-2,8-diaza-spiro[4,5]dec-2-ene-3-carboxylic acid [2-(4-chlorophenyl)-ethyl]-amide] was tested, and the inhibition at 10 µM was 55%. `Cc1ccc(S(=O)(=O)N2CCC3(CC2)CC(C(=O)NCCN(C)C)=NO3)cc1` [Example 57, 8-(toluene-4-sulphonyl)-1-oxa-2,8-diaza-spiro[4,5]dec-2-ene-3-carboxylic acid (2-dimethylamino-ethyl)-amide] showed an inhibition at 10 µM of 41%. For `O=C(NC1CCN(Cc2ccc(C(F)(F)F)cc2)C1)C1=NOC2(CCN(S(=O)(=O)c3cccs3)CC2)C1` (stereo not shown) [Example 26, 8-(thiophene-2-sulphonyl)-1-oxa-2,8-diaza-spiro[4,5]dec-2-ene-3-carboxylic acid [1-(4-trifluoromethyl-benzyl)-pyrrolidin-3-yl]-amide], the inhibition at 10 µM was 65%. With `O=C(C1=NOC2(CCN(S(=O)(=O)c3cccc(C(F)(F)F)c3)CC2)C1)N1CCN(CCCc2ccccc2)CC1` [Example 83, [4-(3-phenyl-propyl)-piperazin-1-yl]-[8-(3-trifluoromethyl-benzenesulphonyl)-1-oxa-2,8-diaza-spiro[4,5]dec-2-en-3-yl]-methanone] the inhibition at 10 µM was 52%. Molecule `COc1cccc(CNC(=O)C2=NOC3(CCN(S(=O)(=O)c4ccc(OC(F)(F)F)cc4)CC3)C2)c1` [Example 162, 8-(4-trifluoromethoxy-benzenesulphonyl)-1-oxa-2,8-diaza-spiro[4,5]dec-2-ene-3-carboxylic acid 3-methoxy-benzylamide] has an inhibition at 10 µM of 40%. With `Cc1cnc(C(=O)N2CCN(C(=O)C3=NOC4(CCN(S(=O)(=O)c5ccc(F)cc5)CC4)C3)CC2)cn1` [Example 76, [8-(4-fluoro-benzenesulphonyl)-1-oxa-2,8-diaza-spiro[4,5]dec-2-ene-3-yl]-[4-(5-methyl-pyrazine-2-carbonyl)-piperazin-1-yl]-methanone] the inhibition at 10 µM was 42%. With `COCCOCC(=O)N1CCC2(CC1)CC(C(=O)NCc1ccccc1)=NO2` [Example 87, 8-[2-(2-methoxy-ethoxy)-acetyl]-1-oxa-2,8-diaza-spiro[4,5]dec-2-ene-3-carboxylic acid benzylamide] the inhibition at 10 µM was 40%. For `O=C(C1=NOC2(CCN(S(=O)(=O)c3cccc(C(F)(F)F)c3)CC2)C1)N1CCN(Cc2ccc3ccccc3c2)CC1` [Example 35, (4-naphthalen-2-ylmethyl-piperazin-l-yl)-[8-(3-trifluoromethyl-benzenesulphonyl)-1-oxa-2,8-diaza-spiro[4,5]dec-2-en-3-yl]-methanone], the “5HT-uptake, 10 μM, % inhibition” value was 44%. In the case of `CCOC(=O)CCNC(=O)C1=NOC2(CCN(S(=O)(=O)CC34CCC(CC3=O)C4(C)C)CC2)C1` (stereo not shown) [Example 66, 3-{[8-(7,7-dimethyl-2-oxo-bicyclo[2.2.1]hept-1-ylmethane-sulphonyl)-1-oxa-2,8-diaza-spiro[4,5]dec-2-ene-3-carbonyl]-amino]-propionic acid ethyl ester], the inhibition at 10 µM is reported as 40%. `COc1ccc(C(=O)N2CCC3(CC2)CC(C(=O)NCc2ccc(C)o2)=NO3)cc1` [Example 59] was tested, and the “5HT-uptake, 10 μM, % inhibition” value was 45%. For `Cc1ccc(S(=O)(=O)N2CCC3(CC2)CC(C(=O)N(CCC#N)Cc2ccccc2)=NO3)cc1` [Example 28, 8-(toluene-4-sulphonyl)-1-oxa-2,8-diaza-spiro[4,5]dec-2-ene-3-carboxylic acid benzyl-(2-cyano-ethyl)-amide], the inhibition at 10 µM was 43%. For `Cc1ccc([N+](=O)[O-])cc1S(=O)(=O)N1CCC2(CC1)CC(C(=O)NCCN(C)C)=NO2` [Example 19, 8-(2-methyl-5-nitro-benzenesulphonyl)-1-oxa-2,8-diaza-spiro[4,5]dec-2-ene-3 carboxylic acid (2-dimethylamino-ethyl)-amide], the inhibition at 10 µM was 80%. Work on `O=C(C1=NOC2(CCN(S(=O)(=O)Cc3ccccc3)CC2)C1)N1CCN(c2ccc(Cl)cc2)CC1` [Example 46, [4-(4-chloro-phenyl)-piperazin-1-yl]-(8-phenylmethane-sulphonyl-1-oxa-2,8-diaza-spiro[4,5]dec-2-en-3-yl)-methanone] yielded an inhibition at 10 µM of 40%. `O=C(NCCc1ccc(Cl)cc1)C1=NOC2(CCN(S(=O)(=O)c3cccs3)CC2)C1` [Example 60, 8-(thiophene-2-sulphonyl)-1-oxa-2,8-diaza-spiro[4,5]dec-2-ene-3-carboxylic acid [2-(4-chlorophenyl)-ethyl]-amide] showed an inhibition at 10 µM of 65%. Molecule `CN1CCCC1CCNC(=O)C1=NOC2(CCN(S(=O)(=O)c3ccc(Cl)s3)CC2)C1` (stereo not shown) [Example 61, 8-(5-chloro-thiophene-2-sulphonyl)-1-oxa-2,8-diaza-spiro[4,5]dec-2-ene-3-carboxylic acid [2-(1-methyl-pyrrolidin-2-yl)-ethyl]-amide] has an inhibition at 10 µM of 72%. Work on `Cc1ccc(S(=O)(=O)N2CCC3(CC2)CC(C(=O)NCc2cc(Cl)cc(Cl)c2)=NO3)cc1` [Example 63, 8-(toluene-4-sulphonyl)-1-oxa-2,8-diaza-spiro[4,5]dec-2-ene-3-carboxylic acid 3,5-dichlorobenzylamide] yielded an inhibition at 10 µM of 55%. With `COc1ccc(OC)c(CN(Cc2ccco2)C(=O)C2=NOC3(CCN(S(=O)(=O)c4ccc(F)cc4)CC3)C2)c1` [Example 160] the “5HT-uptake, 10 μM, % inhibition” value was 50%. `O=C(NC1CCCCCCC1)C1=NOC2(CCN(S(=O)(=O)c3ccc(OC(F)(F)F)cc3)CC2)C1` [Example 86, 8-(4-trifluoromethoxy-benzenesulphonyl)-1-oxa-2,8-diaza-spiro[4,5]dec-2-ene-3-carboxylic acid cyclooctylamide] was tested, and the inhibition at 10 µM was 46%.

Source: patent publication US8557796B2, “Substituted 1-oxa-2,8-diaza-spiro [4,5] dec-2-ene derivatives and related treatment methods” (Gruenenthal GmbH, priority 2001, dated 2013)
